Values of other authors as cited in patent US6355457B1, “Genes for the biosynthesis of epothilones” (Novartis AG, priority 1998, dated 2002).

Tested on: human solid tumors
Details: in vivo

## CC(=O)O[C@H]1C(=O)[C@@]2(C)[C@H]([C@H](OC(=O)c3ccccc3)[C@]3(O)C[C@H](OC(=O)[C@H](O)[C@@H](NC(=O)c4ccccc4)c4ccccc4)C(C)=C1C3(C)C)[C@]1(OC(C)=O)CO[C@@H]1C[C@@H]2O [Taxol]
  activity against human solid tumors: significant activity against various human solid tumors

## CC(=O)O[C@@]12CO[C@@H]1C[C@H](O)[C@@]1(C)C(=O)[C@H](O)C3=C(C)[C@@H](OC(=O)[C@H](O)[C@@H](NC(=O)OC(C)(C)C)c4ccccc4)C[C@@](O)([C@@H](OC(=O)c4ccccc4)[C@H]21)C3(C)C [taxotere]
  activity against human solid tumors: significant activity against various human solid tumors
